Columns and labels:
D-amino acid oxidase = D-amino acid oxidase (Sus scrofa, UniProt P00371); conditions: same concentration as D-alanine (35 mM), pH 8.0
Excerpt: Use of apo-D-amino acid oxidase, whose holoenzyme has a pH optimum of 8.0-9.0, allows the above assay to be conducted in a single pot:
The above ingredients may be mixed beforehand and added directly too the alkaline phosphatase.

apoglucose oxidase = molecular target: T1, apoglucose oxidase (Aspergillus niger, UniProt P13006); assay: Binding of FAD / FADP by apoglucose oxidase (removal of FAD traces from FADP)
T1 construct: made in house
Procedure: Apoglucose oxidase (2.5 μM) was mixed with FADP (200 μM) at room temperature. After 30 min the mixture was ultrafiltered to yield a sample of FADP containing less than 0.002% FAD.

alkaline phosphatase = assay: Hydrolysis of FADP by alkaline phosphatase, product checked by anion exchange elution and apoglucose oxidase reconstitution; assay type: biochemical; conditions: 10 mM Tris buffer pH 8.0, 1 mM MgCl2, 0.1 mM ZnCl2
Excerpt: Crude 2'(3')-FADP was isolated by FPLC on a Mono Q HR 10/10 anion exchange column (Pharmacia) with a H2 O/1M ammonium formate (pH 6.5) gradient. The fractions eluting with 0.65-0.8M ammonium formate were pooled and freeze-dried. […] Traces of FAD could be removed by treatment with a suitable apoenzyme followed by ultrafiltration to remove the macromolecules.

apoenzyme = assay: Prosthetic-group activity of FADP and its interference with holoenzyme formation from apoenzyme and FAD; assay type: biochemical; conditions: shelf-stable apoenzymes
Excerpt: In a preferred embodiment, the prosthetogen is an FAD-phosphate (FADP) and the hydrolase is a phosphatase. This procedure has the great advantage that the prosthetic group, FAD, is formed directly by action of a phosphatase enzyme on the prosthetogen, FADP, without the necessity to add any ancillary converting enzymes.
Suitable apoenzymes include apo-D-aminoacid oxidase and apoglucose oxidase as mentioned above, as well as apo-L-aminoacid oxidase, apoxanthine oxidase and other apoenzymes which will be apparent to those skilled in the art. Apo-D-aminoacid oxidase is a preferred apoenzyme for many applications since it is very shelf-stable, and has kinetic characteristics that permits the technology to be used in a `single pot` format, with all components added as a single promix to analyte-linked alkaline phosphatase. Suitable substrates for it are D-alanine, D-methionine and D-proline. For maximising the sensitivity of the invention without incorporating tail-end cycling components (see below), the use of apoglucose oxidase is advantageous, although its use requires a two stage format in which the first stage, involving hydrolysis of FADP, is operated at pH 8.0 and the second detection stage at a lower pH.

T1 sequence (P13006 17-605): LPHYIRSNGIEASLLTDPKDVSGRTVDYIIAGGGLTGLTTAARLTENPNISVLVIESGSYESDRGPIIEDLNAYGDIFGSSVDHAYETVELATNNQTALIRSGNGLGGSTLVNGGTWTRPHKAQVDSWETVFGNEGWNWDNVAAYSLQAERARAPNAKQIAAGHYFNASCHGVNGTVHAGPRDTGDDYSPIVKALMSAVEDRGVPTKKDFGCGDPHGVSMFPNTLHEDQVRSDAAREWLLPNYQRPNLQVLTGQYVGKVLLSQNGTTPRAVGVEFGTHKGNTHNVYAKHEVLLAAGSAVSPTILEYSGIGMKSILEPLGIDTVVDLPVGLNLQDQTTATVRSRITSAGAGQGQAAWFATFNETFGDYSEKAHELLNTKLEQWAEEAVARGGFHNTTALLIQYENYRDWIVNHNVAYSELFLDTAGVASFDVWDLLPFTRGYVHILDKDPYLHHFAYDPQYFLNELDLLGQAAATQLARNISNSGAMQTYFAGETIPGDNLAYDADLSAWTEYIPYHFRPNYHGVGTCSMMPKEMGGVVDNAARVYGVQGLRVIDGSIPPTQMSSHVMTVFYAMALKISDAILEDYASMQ
Sequence of D-amino acid oxidase (P00371 whole entry): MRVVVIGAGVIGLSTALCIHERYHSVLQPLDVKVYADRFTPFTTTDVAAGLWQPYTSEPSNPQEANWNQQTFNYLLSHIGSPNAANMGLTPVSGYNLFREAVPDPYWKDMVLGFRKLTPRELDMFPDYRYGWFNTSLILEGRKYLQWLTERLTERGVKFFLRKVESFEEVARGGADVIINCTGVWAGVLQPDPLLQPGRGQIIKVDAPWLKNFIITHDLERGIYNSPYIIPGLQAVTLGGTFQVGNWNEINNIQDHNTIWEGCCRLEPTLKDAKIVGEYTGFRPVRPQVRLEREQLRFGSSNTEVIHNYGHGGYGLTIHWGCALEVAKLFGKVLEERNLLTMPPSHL

CSCC[C@@H](N)C(=O)O [D-methionine]
rate of oxidation relative to D-alanine (D-amino acid oxidase): 2.5

O=C(O)[C@H]1CCCN1 [D-proline]
rate of oxidation relative to D-alanine (D-amino acid oxidase): 3.0

Cc1cc2nc3c(=O)[nH]c(=O)nc-3n(C[C@H](O)[C@H](O)[C@H](O)COP(=O)(O)OP(=O)(O)OC[C@H]3O[C@@H](n4cnc5c(N)ncnc54)[C@H](O)[C@@H]3O)c2cc1C [FAD, flavin adenine dinucleotide, reference compound]
binding by apoglucose oxidase (apoglucose oxidase): binds FAD tightly

FAD-2' (3')-Phosphate [FADP]
hydrolysis by alkaline phosphatase (alkaline phosphatase): acted upon by alkaline phosphatase to give a product that eluted in the same place as FAD and was able to reconstitute apoglucose oxidase
activity per se as a prosthetic group (apoenzyme): no significant activity per se as a prosthetic group
interference with formation of the holoenzyme from apoenzyme and FAD (apoenzyme): does not significantly interfere with the formation of the holoenzyme
binding by apoglucose oxidase (apoglucose oxidase): does not bind FADP
